Assay results: US8034781B2, “Angiotensin-(1-7) and angiotensin-(1-7) agonists for inhibition of cancer cell growth” (Wake Forest University Health Sciences, priority 2002, dated 2011)
One block for each compound: values may come before it. Square brackets hold non-standard residues; d marks the D form. Ends that are not written are not given here. Sar = CNCC(=O)O

How the values were obtained:
[1] = test system: SK-LU-1 lung cancer cells; assay type: cell-based, human; details: for effect on serum-stimulated 3H-thymidine incorporation: SK-LU-1, peptide at 1 or 100 nM (FIG. 8); for effect of antagonist on inhibition of serum-stimulated growth by Ang-(1-7): SK-LU-1 (FIG. 7)
Description: (§6) Cells were grown in DMEM with 10% fetal bovine serum (FBS), 100 μg/mL penicillin and 100 units/mL streptomycin in a humidified 37° C. incubator gassed with 5% CO2 and 95% room air. Cells were grown to subconfluence in either 24-well cluster plates or 100 mm dishes and made quiescent by treatment for 48 h with serum-depleted growth media, prior to the experiments outlined below to measure cell growth (^3H-thymidine incorporation), cell signaling or apoptosis.

[2] = test system: vascular smooth muscle cells (VSMCs); assay type: cell-based, Sprague-Dawley rats; details: for effect of antagonist on Ang-(1-7) attenuation of serum-stimulated thymidine incorporation: 1 μM Ang-(1-7), FBS (FIG. 2)
Description: (§1) Vascular smooth muscle cells were isolated form 12-14 week old Sprague-Dawley rats by explant culture (Freeman, E. J. et al., Hypertension, 1996, 28:104-108). Human lung and breast cancer cell lines were obtained from American Type Tissue Culture (ATTC) and included cells of the SK-LU-1 and A549 cell lines (both of which are derived from adenocarcinomas) as well as SK-MES-1 cells (derived from non-small cell lung tumors) and ZR-75-1 breast cancer cells.
(§2) Cells were grown in DMEM with 10% fetal bovine serum (FBS), […] in a humidified 37° C. incubator gassed with 5% CO2 and 95% room air. Cells were grown to subconfluence in either 24-well cluster plates or 100 mm dishes and made quiescent by treatment for 48 h with serum-depleted growth media, prior to the experiments outlined below to measure cell growth (^3H-thymidine incorporation), cell signaling or apoptosis.
To measure ^3H-thymidine incorporation, quiescent cells were incubated with serum and angiotensin peptides for 24 h at 37° C. ^3H-thymidine (0.25 μCi/well) was added and the cells incubated for an additional 4 h to incorporate the radiolabeled nucleotide. Subsequently, the cell monolayer was washed with cold phosphate-buffered saline (PBS; 50 mM NaPO4, 120 mM NaCl, pH=7.2). The adherent cells were precipitated with cold 10% TCA (4° C. for 30 min) and dissolved in 0.2% SDS in 0.1 N NaOH. Incorporated ^3H-thymidine was determined by liquid scintillation spectrometry, as previously described (Freeman, E. J. et al., Hypertension, 1996, 28:104-108). Growth inhibition was defined as a reduction in the amount of ^3H-thymidine incorporation as compared to the mitogen-stimulated controls.
During an additional 4 h, cell monolayers were pulsed with ^3H-thymidine (0.25 μCi/well) and harvested.

ERK1 = ERK1 phosphorylation in VSMCs, phospho-specific antibodies; assay type: cell-based, rat
Description: (§3) Reactions were terminated with Triton lysis buffer (50 mM Tris-HCl, pH 7.4, 1% Triton X-100, 100 mM NaCl, 5 mM EDTA, 50 mM NaF, 0.6 μM leupeptin, 0.01 mM Na3VO4 and 0.1 mM PMSF) and protein concentrations determined (Lowry, O. H., et al., J. Biol. Chem., 1951, 193:265-275). Proteins were separated by SDS polyacrylamide gel electrophoresis and transferred to polyvinyl membranes. The activation and autophosphorylation of ERK1 and ERK2 was determined using antibodies specific for the phosphorylated kinases (using antibodies from Cell Signaling Technologies). The immunoreactive product were visualized by enhanced chemiluminescence (ECL, Amersham) and quantified by densitometry, using the MCID image analysis system. The phospho-MAP kinase antibodies only recognize the catalytically activated and phosphorylated forms of MAP kinase (both ERK1 and ERK2 MAP kinase). The blots were also probed with antibodies to ERK1/2, to control for protein loading.
(§4) The activity of the MAP kinases ERK1 and ERK2 in VSMCs was measured using phospho-specific antibodies that only recognize the activated protein kinases.

ERK2 = ERK2 phosphorylation in VSMCs, phospho-specific antibodies; assay type: cell-based, rat
Description: as §3, §4

[3] = test system: vascular smooth muscle cells (VSMCs); assay: Total cell number of VSMCs by Coulter counter; assay type: cell-based, Sprague-Dawley rats; details: Ang II alone
Description: Total cell number in response to treatment with Ang-(1-7) was also determined using a Coulter counter. The number of cells per well increased to 142% of basal following treatment with 1% serum.

[4] = Balloon catheter injury to the rat carotid artery, intravenous minipump infusion; assay type: in vivo; details: rat, plasma, 24 ug/kg/h; intravenous minipump 24 μg/kg/h, 12 days, carotid artery-injured rats
Description: (§5) In these same animals, the cross-sectional area of the neointima was reduced to 0.09±0.01 mm^2 as compared to 0.12±0.02 mm^2 in saline-treated controls (p<0.05).

[5] = test system: vascular growth stimulated by balloon catheter injury to the rat carotid artery; assay: as above; assay type: in vivo
Description: as §5

[6] = test system: SK-MES-1 lung cancer cells; assay type: cell-based, human
Description: as §6
To measure ^3H-thymidine incorporation, quiescent cells were incubated with serum and angiotensin peptides for 24 h at 37° C. ^3H-thymidine (0.25 μCi/well) was added and the cells incubated for an additional 4 h to incorporate the radiolabeled nucleotide. Subsequently, the cell monolayer was washed with cold phosphate-buffered saline (PBS; 50 mM NaPO4, 120 mM NaCl, pH=7.2). […] Incorporated ^3H-thymidine was determined by liquid scintillation spectrometry, as previously described (Freeman, E. J. et al., Hypertension, 1996, 28:104-108). […]

[7] = test system: ZR-75-1 breast cancer cells; assay type: cell-based, human
Description: as §1, §2
To measure ^3H-thymidine incorporation, quiescent cells were incubated with serum and angiotensin peptides for 24 h at 37° C. ^3H-thymidine (0.25 μCi/well) was added and the cells incubated for an additional 4 h to incorporate the radiolabeled nucleotide. […] Incorporated ^3H-thymidine was determined by liquid scintillation spectrometry, as previously described (Freeman, E. J. et al., Hypertension, 1996, 28:104-108). […]

[8] = test system: vascular growth stimulated by balloon catheter injury to the rat carotid artery; details: previous studies with rats, 24 μg/kg/hr; cited from earlier work
AT2 angiotensin receptor = molecular target: T1, AT2 angiotensin receptor (Homo sapiens, UniProt P50052); details: cited from earlier work
T1 sequence (P50052 1-363): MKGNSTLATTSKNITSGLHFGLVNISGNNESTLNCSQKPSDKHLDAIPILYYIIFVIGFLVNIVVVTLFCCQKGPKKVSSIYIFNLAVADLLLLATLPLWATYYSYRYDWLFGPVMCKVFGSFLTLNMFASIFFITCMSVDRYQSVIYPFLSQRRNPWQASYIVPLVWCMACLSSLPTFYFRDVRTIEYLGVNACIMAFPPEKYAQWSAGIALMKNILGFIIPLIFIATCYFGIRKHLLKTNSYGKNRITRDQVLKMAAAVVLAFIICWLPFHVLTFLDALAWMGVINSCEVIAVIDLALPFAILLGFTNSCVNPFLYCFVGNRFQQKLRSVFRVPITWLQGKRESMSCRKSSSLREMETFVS

AT1 angiotensin receptor = details: cited from earlier work
[9] = maximal stimulation by 1 μM Ang II
[10] = lisinopril 20 mg/kg/day for 14 days

Compound: Val-Tyr-Ile-His-Pro (VYIHP; listed as Homo sapiens) [Ang-(3-7)]
- effect on serum-stimulated 3H-thymidine incorporation [1]: ineffective

Compound: Val-Tyr-Ile-His-Pro-Phe (VYIHPF; listed as Homo sapiens) [Ang-(3-8)]
- effect on serum-stimulated 3H-thymidine incorporation [1]: ineffective

Compound: Cc1cc(Cn2cnc3c2CC(C(=O)O)N(C(=O)C(c2ccccc2)c2ccccc2)C3)ccc1N (centres unmarked) [PD123177]
- effect of antagonist on Ang-(1-7) attenuation of serum-stimulated thymidine incorporation ([2]; VSMCs): unaffected
- effect of antagonist on inhibition of serum-stimulated growth by Ang-(1-7) [1]: neither AT1 nor AT2 angiotensin receptor antagonists Losartan and PD123177, respectively, were effective

Compound: PDGF
- increase of ERK1 activity over basal (ERK1; 10 ng/mL PDGF): 16 fold
- increase of ERK2 activity over basal (ERK2; 10 ng/mL PDGF): 26 fold

Compound: CCN(CC)CC.Nc1ncnc2c1ncn2[C@@H]1O[C@@H]2COP(O)(=S)O[C@H]2[C@H]1O (some centres unmarked) [Rp-cAMPS, Rp-adenosine-3′,5′-cyclic monphosphophorothioate triethylamine salt]
- effect on reduction in serum-stimulated 3H-thymidine incorporation by Ang-(1-7) or carbacyclin ([2]; VSMCs, pretreatment 10 μM (FIG. 10)): completely blocked

Compound: CCCCc1nc(Cl)c(CO)n1Cc1ccc(-c2ccccc2-c2nn[nH]n2)cc1 [Losartan]
- effect of antagonist on inhibition of serum-stimulated growth by Ang-(1-7) [1]: neither AT1 nor AT2 angiotensin receptor antagonists Losartan and PD123177, respectively, were effective

Compound: CCc1nc2c(C)cc(C)nc2n1Cc1ccc(-c2ccccc2-c2nn[nH]n2)cc1 [L158,809]
- effect of antagonist on Ang-(1-7) attenuation of serum-stimulated thymidine incorporation ([2]; VSMCs): unaffected

Compound: DRVYIHPFHL [Ang I]
- effect on serum-stimulated 3H-thymidine incorporation [1]: ineffective

Compound: Cc1cc(Cn2cnc3c2C[C@@H](C(=O)O)N(C(=O)C(c2ccccc2)c2ccccc2)C3)ccc1N(C)C [PD 123319]
- effect of antagonist on Ang-(1-7) attenuation of serum-stimulated thymidine incorporation ([2]; VSMCs): not prevented

Compound: C#CCCCCCCCCCCCCCCCC(=O)O [17-octadecynoic acid]
- effect on growth inhibition by Ang-(1-7) ([2]; VSMCs, cytochrome P450 inhibitor): neither a lipoxygenase inhibitor nor the cytochrome P450 inhibitor 17-octadecynoic acid had any effect

Compound: Arg-Val-Tyr-Ile-His-Pro-Phe (RVYIHPF; listed as Homo sapiens) [Ang-(2-8)]
- effect on serum-stimulated 3H-thymidine incorporation [1]: ineffective

Compound: Asp-Arg-Val-Tyr-Ile-His-Pro-Phe (DRVYIHPF; listed as Homo sapiens) [Ang II]
- effect on 3H-thymidine incorporation into VSMCs ([2]; peptide alone, dose response (FIG. 1)): dose-dependent stimulation
- number of cells per well [3]: 145 % of basal
- effect on serum-stimulated 3H-thymidine incorporation [1]: ineffective
- increase in ERK1 phosphorylation over basal (ERK1; [9]): 37 fold
- increase in ERK2 phosphorylation over basal (ERK2; [9]): 166 fold

Compound: Sar-Arg-Val-Tyr-Ile-His-Pro-Thr ([Sar]RVYIHPT) [[Sar^1-Thr^8]-Ang II]
- effect of antagonist on Ang-(1-7) attenuation of serum-stimulated thymidine incorporation ([2]; VSMCs): completely blocked

Compound: CCCCC[C@H](O)/C=C/[C@@H]1[C@H]2C/C(=C/CCCC(=O)O)C[C@H]2C[C@H]1O [carbacyclin]
- effect on serum-stimulated 3H-thymidine incorporation ([2]; VSMCs, 5 μM (FIG. 10)): reduction

- IC50 [1]: 0.05 nM
- IC50 [6]: 0.4 nM
- IC50 [7]: 0.02 nM
Compound: CC[C@H](C)[C@H](NC(=O)[C@H](Cc1ccc(O)cc1)NC(=O)[C@@H](NC(=O)[C@H](CCCNC(=N)N)NC(=O)[C@@H](N)CC(=O)O)C(C)C)C(=O)N[C@@H](Cc1c[nH]cn1)C(=O)N1CCC[C@H]1C(=O)O [Ang-(1-7), Asp-Arg-Val-Tyr-Ile-His-Pro]
- level at time molar at 288 h [4]: 0.131 ± 0.0397 nM
- blood pressure ([5]; Ang-(1-7) infusion vs saline): similar
- heart rate ([5]; Ang-(1-7) infusion vs saline): similar
- change in weight, blood pressure, or heart rate [8]: no change
- IC50 levels at the AT2 angiotensin receptor (AT2 angiotensin receptor): micromolar range

Compound: NCCCC[C@H](N[C@@H](CCc1ccccc1)C(=O)O)C(=O)N1CCC[C@H]1C(=O)O [lisinopril]
- cross-sectional area of the neointima [5, 10]: 0.09±0.01 mm^2
- elevation of plasma levels of Ang-(1-7) vs saline [5, 10]: 2.3 fold
- plasma levels of Ang-(1-7) ([5]; lisinopril 20 mg/kg/day for 14 days, balloon catheter injury): 99.1 ± 6.7 pM

Compound: Asp-Arg-Val-Tyr-Ile-His-[D]Ala (DRVYIH[dA]) [[D-Ala^7]-Ang-(1-7)]
- effect of antagonist on Ang-(1-7) attenuation of serum-stimulated thymidine incorporation ([2]; VSMCs): blocked
- effect of antagonist on inhibition of serum-stimulated growth by Ang-(1-7) [1]: blocked
- competition at the AT1 receptor (AT1 angiotensin receptor): poor competitor
- competition at the AT2 receptor (AT2 angiotensin receptor): poor competitor
